Where two headings read alike, the source gives them in different places.

The term IC50 denotes the concentration needed to halve the response being measured.

Common to all, as to format: biochemical
Assay [1] deals with T1, CYP3A4 (Homo sapiens, UniProt P08684). As to the kind of experiment: Determination of IC50 against CYP3A4 by measurement of inhibition of testosterone metabolism (human liver microsomes, 6-β-OH-testosterone by LC-MS/MS). On the set-up: 0.1 mg/mL human liver microsomes. The note with it: read-out: IC50 (Testo.). A digest of the protocol:
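Human liver microsomes (0.1 mg/mL) incubated with 25 μM testosterone and 1 mM NADPH in 100 mM potassium phosphate, pH 7.4, for eight minutes. 6-β-OH-testosterone measured by LC-MS/MS in MRM mode against an internal standard and quantified from a metabolite standard curve.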
Background: Liver microsomes are vesicles of endoplasmic reticulum, rich in cytochrome P450 enzymes.

The target of assay [2] is T1, CYP3A4. The assay can be described thus: Determination of compound Kiapp against recombinant CYP3A4 enzyme (BFC fluorescent substrate). A digest of the protocol: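 Recombinant CYP3A4 (5.5 or 8 nM, with or without b5 depending on source) pre-incubated with inhibitor ≥30 min at room temperature in 100 mM sodium phosphate pH 7.0, 5 mM TCEP, 2% DMF. Reaction started with 200 uM NADPH and 5 uM BFC; initial fluorescence rates over 5 min fitted to Morrison tight-binding (non-partial) or Szedlacsek (partial) equations for Kiapp.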

Assay [3] deals with T1, CYP3A4. As to the kind of experiment: Determination of IC50 against CYP3A4 by measurement of inhibition of midazolam metabolism (human liver microsomes, 1-hydroxymidazolam by LC-MS/MS). Details: 0.1 mg/mL human liver microsomes. Particulars: 2 μM midazolam, 0.1 mg/mL human liver microsomes. The method, boiled down:
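Human liver microsomes (0.1 mg/mL) incubated 8 min with 2 μM midazolam and 1 mM NADPH in 100 mM potassium phosphate, pH 7.4. 1-Hydroxymidazolam quantified by LC-MS/MS (MRM) as peak area ratio to internal standard against a metabolite standard curve.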

[4] abbreviates: Baculo. enzyme preparation, read-out: Kiapp (BFC, Baculo.).
Where [5] appears, read: Super. enzyme preparation, read-out: Kiapp (BFC, Super.).

T1 sequence (P08684 whole entry): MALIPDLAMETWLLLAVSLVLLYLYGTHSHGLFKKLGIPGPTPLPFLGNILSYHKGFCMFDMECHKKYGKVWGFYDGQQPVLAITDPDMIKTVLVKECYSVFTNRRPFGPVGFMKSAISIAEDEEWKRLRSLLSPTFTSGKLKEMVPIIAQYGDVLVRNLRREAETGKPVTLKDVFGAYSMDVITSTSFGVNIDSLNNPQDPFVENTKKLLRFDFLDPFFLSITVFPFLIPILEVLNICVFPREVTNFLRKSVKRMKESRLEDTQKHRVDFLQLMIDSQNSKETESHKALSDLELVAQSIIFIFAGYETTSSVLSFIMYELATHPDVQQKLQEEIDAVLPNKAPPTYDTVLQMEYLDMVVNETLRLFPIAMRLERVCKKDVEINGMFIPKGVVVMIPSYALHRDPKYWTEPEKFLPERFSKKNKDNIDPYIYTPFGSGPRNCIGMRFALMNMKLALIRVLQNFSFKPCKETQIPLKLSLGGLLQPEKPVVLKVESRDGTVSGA

Turning to `COc1cncc(NS(=O)(=O)c2ccccc2C(=O)NC2CCCC(C)C2)c1` (stereo not drawn) [Example 202, 2-{[(5-methoxypyridin-3-yl)amino]sulfonyl}-N-(3-methylcyclohexyl)benzamide], the IC50 on CYP3A4 [1] was 0.007 µM; on CYP3A4 [3] it was below 0.003 µM. The Ki on CYP3A4 [2] (setting [4]) turned out to be 0.0842 µM; at CYP3A4 [2] (setting [5]), 0.0334 µM.
Turning to `COc1cncc(NS(=O)(=O)c2ccccc2C(=O)NCc2ccc(C#N)cc2Cl)c1` [Example 203, N-(2-chloro-4-cyanobenzyl)-2-{[(5-methoxypyridin-3-yl)amino]sulfonyl}benzamide], the results for the IC50 at CYP3A4 [1] and on CYP3A4 [3] were 0.012 µM and 0.005 µM, respectively. In addition, the values for the Ki at CYP3A4 [2] (setting [4]) and on CYP3A4 [2] (setting [5]) were 0.101 µM and 0.0258 µM, respectively.
As to `COc1cncc(NS(=O)(=O)c2ccccc2C(=O)NC(C)CC(C)C)c1` (stereo not drawn) [Example 204, N-(1,3-dimethylbutyl)-2-{[(5-methoxypyridin-3-yl)amino]sulfonyl}benzamide], the IC50 at CYP3A4 [1] was 0.012 µM; at CYP3A4 [3] it was below 0.003 µM. Also, the Ki came out at 0.0525 µM at CYP3A4 [2] (setting [4]) and 0.0126 µM at CYP3A4 [2] (setting [5]).
The corresponding values for `CCC(C)NC(=O)c1ccccc1S(=O)(=O)Nc1cncc(OC)c1` (stereo not drawn) [Example 205, N-(sec-butyl)-2-{[(5-methoxypyridin-3-yl)amino]sulfonyl}benzamide] are 0.027 µM, below 0.0155 µM, 0.206 µM and 0.0419 µM.
Regarding `COc1cncc(NS(=O)(=O)c2ccccc2C(=O)NCc2cccc(Cl)c2C)c1` [Example 206, N-(3-chloro-2-methylbenzyl)-2-{[(5-methoxypyridin-3-yl)amino]sulfonyl}benzamide], the IC50 is 0.006 µM at CYP3A4 [1] and below 0.003 µM on CYP3A4 [3]. The figures for the Ki on CYP3A4 [2] (setting [4]) and on CYP3A4 [2] (setting [5]) were 0.0036 µM and 0.0029 µM, respectively.
The corresponding values for `COc1cncc(NS(=O)(=O)c2ccccc2C(=O)NCc2c(F)cccc2F)c1` [Example 207, N-(2,6-difluorobenzyl)-2-{[(5-methoxypyridin-3-yl)amino]sulfonyl}benzamide] are 0.024 µM, 0.005 µM, 0.105 µM and 0.0191 µM.
On to `CCC(C)CNC(=O)c1ccccc1S(=O)(=O)Nc1cncc(OC)c1` (stereo not drawn) [Example 208, 2-{[(5-methoxypyridin-3-yl)amino]sulfonyl}-N-(2-methylbutyl)benzamide], for which the figures for the IC50 on CYP3A4 [1] and at CYP3A4 [3] were 0.019 µM and 0.0095 µM, respectively. Moreover, the figures for the Ki at CYP3A4 [2] (setting [4]) and on CYP3A4 [2] (setting [5]) were 0.0573 µM and 0.0161 µM, respectively.
Regarding `COc1cncc(NS(=O)(=O)c2ccccc2C(=O)NCCC2CCCC2)c1` [Example 209, N-(2-cyclopentylethyl)-2-{[(5-methoxypyridin-3-yl)amino]sulfonyl}benzamide], the half-inhibitory concentration (IC50) at CYP3A4 [1] was 0.005 µM; at CYP3A4 [3] it was 0.004 µM. Moreover, the Ki at CYP3A4 [2] (setting [4]) came to 0.0182 µM; on CYP3A4 [2] (setting [5]) it was 0.0061 µM.
With `COc1cncc(NS(=O)(=O)c2ccccc2C(=O)N[C@@H](C)C(C)(C)C)c1` [Example 210, 2-{[(5-methoxypyridin-3-yl)amino]sulfonyl}-N-[(1S)-122-trimethylpropyl]benzamide], the IC50 at CYP3A4 [1] amounted to 0.049 µM; at CYP3A4 [3], 0.01 µM. Further, the Ki at CYP3A4 [2] (setting [4]) came to 0.286 µM; on CYP3A4 [2] (setting [5]) it was 0.0396 µM.
As for `COc1cncc(NS(=O)(=O)c2ccccc2C(=O)NC(C(C)C)C(C)C)c1` [Example 211, N-(1-isopropyl-2-methylpropyl)-2-{[(5-methoxypyridin-3-yl)amino]sulfonyl}benzamide], the IC50 at CYP3A4 [1] came to 0.019 µM; on CYP3A4 [3], 0.004 µM. For the same compound, the values for the Ki at CYP3A4 [2] (setting [4]) and at CYP3A4 [2] (setting [5]) were 0.0336 µM and 0.0079 µM, respectively.
The corresponding values for `COc1cncc(NS(=O)(=O)c2ccccc2C(=O)NCc2ccc(F)cc2F)c1` [Example 212, N-(2,4-difluorobenzyl)-2-{[(5-methoxypyridin-3-yl)amino]sulfonyl}benzamide] are 0.008 µM, below 0.003 µM, 0.0203 µM and 0.006 µM.
For the compound `COc1cncc(NS(=O)(=O)c2ccccc2C(=O)NCc2c(F)cccc2Cl)c1` [Example 213, N-(2-chloro-6-fluorobenzyl)-2-{[(5-methoxypyridin-3-yl)amino]sulfonyl}benzamide], the 50% inhibitory concentration (IC50) on CYP3A4 [1] was 0.013 µM; on CYP3A4 [3], below 0.003 µM. The values for the Ki on CYP3A4 [2] (setting [4]) and on CYP3A4 [2] (setting [5]) were 0.0272 µM and 0.0098 µM, respectively.
On to `COc1cncc(NS(=O)(=O)c2ccccc2C(=O)NC2CCCC2)c1` [Example 214, N-cyclopentyl-2-{[(5-methoxypyridin-3-yl)amino]sulfonyl}benzamide], for which the IC50 was found to be 0.066 µM at CYP3A4 [1] and 0.014 µM at CYP3A4 [3]. Moreover, the results for the Ki at CYP3A4 [2] (setting [4]) and on CYP3A4 [2] (setting [5]) were 0.355 µM and 0.0473 µM, respectively.
Consider `COc1cncc(NS(=O)(=O)c2ccccc2C(=O)NC2CC3CCC2C3)c1` (stereo not drawn) [Example 215, N-bicyclo[2.2.1]hept-2-yl-2-{[(5-methoxypyridin-3-yl)amino]sulfonyl}benzamide], for which the results for the concentration for half-maximal inhibition (IC50) at CYP3A4 [1] and on CYP3A4 [3] were 0.058 µM and 0.025 µM, respectively. The values for the Ki on CYP3A4 [2] (setting [4]) and on CYP3A4 [2] (setting [5]) were 0.216 µM and 0.0433 µM, respectively.
As to `COc1cncc(NS(=O)(=O)c2ccccc2C(=O)NCc2ccc(Cl)cc2C)c1` [Example 216], the figures for the IC50 on CYP3A4 [1] and on CYP3A4 [3] were 0.007 µM and 0.005 µM, respectively. In addition, the Ki on CYP3A4 [2] (setting [4]) worked out at 0.0069 µM; on CYP3A4 [2] (setting [5]) it was 0.0035 µM.
For the compound `CCOc1ccncc1NS(=O)(=O)c1ccccc1C(=O)NCCOC` [Example 217, 2-{[(4-ethoxypyridin-3-yl)amino]sulfonyl}-N-(2-methoxyethyl)benzamide], the IC50 at CYP3A4 [1] was determined as 0.23 µM; on CYP3A4 [3], 0.179 µM. Moreover, the figures for the Ki at CYP3A4 [2] (setting [4]) and on CYP3A4 [2] (setting [5]) were 0.965 µM and 0.216 µM, respectively.
With `CCOCCNC(=O)c1ccccc1S(=O)(=O)Nc1cnccc1OCC` [Example 218, N-(2-ethoxyethyl)-2-{[(4-ethoxypyridin-3-yl)amino]sulfonyl}benzamide], the half-maximal inhibitory concentration (IC50) is 0.189 µM at CYP3A4 [1] and 0.096 µM on CYP3A4 [3]. Further, the Ki at CYP3A4 [2] (setting [4]) came out at 0.748 µM; on CYP3A4 [2] (setting [5]), 0.146 µM.
On to `CCOc1ccncc1NS(=O)(=O)c1ccccc1C(=O)NCCOc1ccccc1` [Example 219], for which the 50% inhibitory concentration (IC50) on CYP3A4 [1] was 0.032 µM; at CYP3A4 [3], 0.027 µM. Further, the Ki turned out to be 0.108 µM on CYP3A4 [2] (setting [4]) and 0.0403 µM on CYP3A4 [2] (setting [5]).
Regarding `COc1ccncc1NS(=O)(=O)c1ccccc1C(=O)NCCc1ccccc1Cl` [Example 220, N-[2-(2-chlorophenyl)ethyl]-2-{[(4-methoxypyridin-3-yl)amino]sulfonyl}benzamide], the results for the IC50 at CYP3A4 [1] and on CYP3A4 [3] were 0.011 µM and 0.006 µM, respectively. In addition, the Ki at CYP3A4 [2] (setting [4]) turned out to be 0.0137 µM; on CYP3A4 [2] (setting [5]), 0.0091 µM.
In the case of `COc1ccncc1NS(=O)(=O)c1ccccc1C(=O)NCCc1ccccc1OC(F)(F)F` [Example 221, 2-{[(4-methoxypyridin-3-yl)amino]sulfonyl}-N-{2-[2-(trifluoromethoxy)phenyl]ethyl} benzamide], the figures for the IC50 at CYP3A4 [1] and on CYP3A4 [3] were 0.012 µM and 0.011 µM, respectively. Further, the Ki at CYP3A4 [2] (setting [4]) stood at 0.016 µM; at CYP3A4 [2] (setting [5]), 0.0089 µM.
In the case of `COc1ccncc1NS(=O)(=O)c1ccccc1C(=O)NCCc1ccccc1F` [Example 222], the IC50 on CYP3A4 [1] was 0.034 µM; at CYP3A4 [3], 0.015 µM. The Ki at CYP3A4 [2] (setting [4]) was 0.207 µM; at CYP3A4 [2] (setting [5]), 0.0127 µM.

For the origin of these results see patent publication US7868026B2, “Therapeutic compounds” (Pfizer Inc., priority 2005, dated 2011).
